Measurements as given in the kinase profiling compilation of Christmann-Franck et al. (2016).

Key:
Experiment in all cases: KINOMEscan competition binding
Details in all cases: compound 10.0 µM
ICK (human) = ICK (human) (UniProt Q9UPZ9)
EGFR (human) = EGFR (human) (UniProt P00533)
[1] = tested on: PIK3CA (human), P42336 [Q546K]
KIT (human) = KIT (human) (UniProt P10721)
YSK4 (human) = YSK4 (human) (UniProt Q56UN5)
[2] = tested on: FLT3 (human), P36888 [K663Q]
GRK7 (human) = GRK7 (human) (UniProt Q8WTQ7)
PIP4K2C (human) = PIP4K2C (human) (UniProt Q8TBX8)
[3] = tested on: PIK3CA (human), P42336 [E545K]
TIE1 (human) = TIE1 (human) (UniProt P35590)
CDKL3 (human) = CDKL3 (human) (UniProt Q8IVW4)
STK39 (human) = STK39 (human) (UniProt Q9UEW8)
PIK3C2G (human) = PIK3C2G (human) (UniProt O75747)
DYRK1A (human) = DYRK1A (human) (UniProt Q13627)
BRAF (human) = BRAF (human) (UniProt P15056)
CRK2 (P.falciparum) = CRK2 (P.falciparum) (UniProt P61075)
PRKCI (human) = PRKCI (human) (UniProt P41743)
OXSR1 (human) = OXSR1 (human) (UniProt O95747)
[4] = tested on: EGFR (human), P00533 [G719S]
CDK13 (human) = CDK13 (human) (UniProt Q14004)
SGK3 (human) = SGK3 (human) (UniProt Q96BR1)
CDK4 CCND3 (human) = CDK4 CCND3 (human) (UniProt P11802+P30281)
MAP3K13 (human) = MAP3K13 (human) (UniProt O43283)
ERBB3 (human) = ERBB3 (human) (UniProt P21860)
NEK3 (human) = NEK3 (human) (UniProt P51956)
DYRK2 (human) = DYRK2 (human) (UniProt Q92630)
DDR1 (human) = DDR1 (human) (UniProt Q08345)
PIP5K1C (human) = PIP5K1C (human) (UniProt O60331)
HIPK4 (human) = HIPK4 (human) (UniProt Q8NE63)
DSTYK (human) = DSTYK (human) (UniProt Q6XUX3)
RPS6KB1 (human) = RPS6KB1 (human) (UniProt P23443)
SBK1 (human) = SBK1 (human) (UniProt Q52WX2)
NIM1 (human) = NIM1 (human) (UniProt Q8IY84)
[5] = tested on: PIK3CA (human), P42336 [C420R]
PIK3CG (human) = PIK3CG (human) (UniProt P48736)
MAST1 (human) = MAST1 (human) (UniProt Q9Y2H9)
ERN1 (human) = ERN1 (human) (UniProt O75460)
CPK1 (P.falciparum) = tested on: CPK1 (P.falciparum)
[6] = tested on: EGFR (human), P00533 [746-750 del]
[7] = tested on: PIK3CA (human), P42336 [H1047Y]

Chain of NIM1 (human) (Q8IY84 whole entry, looked up): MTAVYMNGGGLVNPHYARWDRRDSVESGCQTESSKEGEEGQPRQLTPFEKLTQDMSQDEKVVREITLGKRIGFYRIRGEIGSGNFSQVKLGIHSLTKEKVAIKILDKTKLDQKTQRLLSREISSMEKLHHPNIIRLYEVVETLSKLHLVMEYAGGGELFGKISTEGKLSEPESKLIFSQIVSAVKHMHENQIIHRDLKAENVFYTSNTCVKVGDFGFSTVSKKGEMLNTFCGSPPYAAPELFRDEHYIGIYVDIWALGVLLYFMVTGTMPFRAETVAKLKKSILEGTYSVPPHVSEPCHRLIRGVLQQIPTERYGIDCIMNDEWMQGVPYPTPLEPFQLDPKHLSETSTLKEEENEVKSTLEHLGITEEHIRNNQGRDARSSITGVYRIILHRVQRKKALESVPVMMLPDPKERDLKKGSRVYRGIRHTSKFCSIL
Chain of DYRK2 (human) (Q92630 whole entry, looked up): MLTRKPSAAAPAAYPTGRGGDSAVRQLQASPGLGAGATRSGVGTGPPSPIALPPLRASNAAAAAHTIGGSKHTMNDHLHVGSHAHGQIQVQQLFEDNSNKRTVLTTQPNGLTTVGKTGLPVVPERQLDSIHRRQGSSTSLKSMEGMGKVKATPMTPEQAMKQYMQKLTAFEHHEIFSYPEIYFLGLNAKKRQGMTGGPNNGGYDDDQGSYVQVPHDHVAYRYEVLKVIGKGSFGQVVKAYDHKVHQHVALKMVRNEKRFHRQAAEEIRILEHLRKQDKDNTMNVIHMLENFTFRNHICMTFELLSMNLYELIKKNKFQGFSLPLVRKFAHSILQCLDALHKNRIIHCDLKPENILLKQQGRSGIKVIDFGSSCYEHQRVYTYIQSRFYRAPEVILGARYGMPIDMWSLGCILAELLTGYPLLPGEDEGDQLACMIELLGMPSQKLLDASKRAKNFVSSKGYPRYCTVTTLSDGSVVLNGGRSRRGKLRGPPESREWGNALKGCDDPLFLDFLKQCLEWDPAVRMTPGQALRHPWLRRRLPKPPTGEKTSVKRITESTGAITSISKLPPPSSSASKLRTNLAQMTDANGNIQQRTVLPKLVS
Chain of DDR1 (human) (Q08345 whole entry, looked up): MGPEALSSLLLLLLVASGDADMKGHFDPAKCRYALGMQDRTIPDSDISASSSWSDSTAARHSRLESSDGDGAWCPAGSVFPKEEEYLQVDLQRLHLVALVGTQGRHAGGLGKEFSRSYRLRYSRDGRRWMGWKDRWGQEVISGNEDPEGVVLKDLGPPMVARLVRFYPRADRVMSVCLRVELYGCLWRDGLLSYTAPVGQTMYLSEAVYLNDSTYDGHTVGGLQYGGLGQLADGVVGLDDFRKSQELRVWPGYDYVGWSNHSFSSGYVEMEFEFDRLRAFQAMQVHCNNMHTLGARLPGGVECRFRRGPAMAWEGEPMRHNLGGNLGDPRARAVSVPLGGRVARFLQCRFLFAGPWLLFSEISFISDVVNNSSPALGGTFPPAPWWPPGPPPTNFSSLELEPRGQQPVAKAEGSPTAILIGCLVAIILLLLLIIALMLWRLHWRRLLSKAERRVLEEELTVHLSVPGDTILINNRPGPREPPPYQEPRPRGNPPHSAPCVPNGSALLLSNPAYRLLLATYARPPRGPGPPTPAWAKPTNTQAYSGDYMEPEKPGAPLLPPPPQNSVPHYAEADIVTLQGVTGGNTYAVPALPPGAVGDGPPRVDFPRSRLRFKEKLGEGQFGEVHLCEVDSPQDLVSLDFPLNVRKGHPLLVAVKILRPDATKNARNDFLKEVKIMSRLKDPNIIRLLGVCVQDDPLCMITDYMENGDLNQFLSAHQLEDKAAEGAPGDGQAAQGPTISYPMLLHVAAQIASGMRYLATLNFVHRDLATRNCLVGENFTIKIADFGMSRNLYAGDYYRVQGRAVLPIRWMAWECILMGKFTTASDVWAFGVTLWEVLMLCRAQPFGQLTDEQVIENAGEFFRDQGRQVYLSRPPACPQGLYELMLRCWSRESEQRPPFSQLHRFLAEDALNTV
Chain of ERN1 (human) (O75460 whole entry, looked up): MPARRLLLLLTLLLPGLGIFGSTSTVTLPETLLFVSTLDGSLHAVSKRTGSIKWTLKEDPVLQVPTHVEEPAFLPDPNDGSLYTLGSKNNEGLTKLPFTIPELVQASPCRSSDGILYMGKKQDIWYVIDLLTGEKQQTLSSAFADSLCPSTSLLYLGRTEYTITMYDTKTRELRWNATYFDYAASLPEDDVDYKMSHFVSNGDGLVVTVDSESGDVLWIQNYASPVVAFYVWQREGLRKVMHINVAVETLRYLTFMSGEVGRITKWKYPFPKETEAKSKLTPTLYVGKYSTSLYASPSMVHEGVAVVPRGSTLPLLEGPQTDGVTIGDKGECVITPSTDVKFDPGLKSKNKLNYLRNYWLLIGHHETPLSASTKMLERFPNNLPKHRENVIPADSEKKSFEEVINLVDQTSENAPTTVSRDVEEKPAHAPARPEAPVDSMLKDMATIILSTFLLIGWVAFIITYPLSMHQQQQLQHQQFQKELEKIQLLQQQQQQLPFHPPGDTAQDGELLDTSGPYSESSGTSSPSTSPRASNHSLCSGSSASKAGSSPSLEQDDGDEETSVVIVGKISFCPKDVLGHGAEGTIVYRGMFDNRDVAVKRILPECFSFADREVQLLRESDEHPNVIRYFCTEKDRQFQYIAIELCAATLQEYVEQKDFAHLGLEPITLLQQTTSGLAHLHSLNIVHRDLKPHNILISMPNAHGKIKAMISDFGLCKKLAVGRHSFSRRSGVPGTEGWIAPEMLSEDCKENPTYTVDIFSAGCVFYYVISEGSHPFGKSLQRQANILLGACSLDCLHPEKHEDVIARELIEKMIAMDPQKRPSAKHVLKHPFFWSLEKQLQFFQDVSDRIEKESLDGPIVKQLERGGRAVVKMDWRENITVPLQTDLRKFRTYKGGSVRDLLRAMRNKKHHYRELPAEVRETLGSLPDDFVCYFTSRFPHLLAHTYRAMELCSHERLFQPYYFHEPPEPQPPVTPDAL
Chain of MAP3K13 (human) (O43283 whole entry, looked up): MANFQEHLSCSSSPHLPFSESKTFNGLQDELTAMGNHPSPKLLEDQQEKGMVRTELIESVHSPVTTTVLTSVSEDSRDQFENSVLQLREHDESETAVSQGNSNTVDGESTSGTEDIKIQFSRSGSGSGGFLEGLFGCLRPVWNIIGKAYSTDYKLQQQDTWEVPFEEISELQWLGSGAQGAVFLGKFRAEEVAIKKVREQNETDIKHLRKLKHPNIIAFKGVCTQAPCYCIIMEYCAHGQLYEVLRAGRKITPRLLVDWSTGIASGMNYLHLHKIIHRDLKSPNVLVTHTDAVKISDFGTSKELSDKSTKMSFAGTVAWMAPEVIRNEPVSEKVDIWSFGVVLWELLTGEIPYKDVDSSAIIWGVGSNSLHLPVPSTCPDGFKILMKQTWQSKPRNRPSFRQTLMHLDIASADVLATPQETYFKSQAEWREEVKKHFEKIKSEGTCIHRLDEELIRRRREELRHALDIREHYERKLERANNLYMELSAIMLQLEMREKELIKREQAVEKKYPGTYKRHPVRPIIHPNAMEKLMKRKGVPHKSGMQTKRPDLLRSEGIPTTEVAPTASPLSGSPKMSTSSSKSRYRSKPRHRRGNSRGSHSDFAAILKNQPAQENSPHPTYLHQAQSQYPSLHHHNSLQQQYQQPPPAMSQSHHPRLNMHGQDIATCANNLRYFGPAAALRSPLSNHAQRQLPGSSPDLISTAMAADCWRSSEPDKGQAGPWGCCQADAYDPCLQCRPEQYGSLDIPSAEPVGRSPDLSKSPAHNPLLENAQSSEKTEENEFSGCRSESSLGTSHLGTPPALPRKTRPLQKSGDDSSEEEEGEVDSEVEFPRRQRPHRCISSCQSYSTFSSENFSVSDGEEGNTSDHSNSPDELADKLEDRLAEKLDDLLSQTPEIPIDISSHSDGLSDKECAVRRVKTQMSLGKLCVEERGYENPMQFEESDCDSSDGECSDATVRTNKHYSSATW
Chain of PRKCI (human) (P41743 whole entry, looked up): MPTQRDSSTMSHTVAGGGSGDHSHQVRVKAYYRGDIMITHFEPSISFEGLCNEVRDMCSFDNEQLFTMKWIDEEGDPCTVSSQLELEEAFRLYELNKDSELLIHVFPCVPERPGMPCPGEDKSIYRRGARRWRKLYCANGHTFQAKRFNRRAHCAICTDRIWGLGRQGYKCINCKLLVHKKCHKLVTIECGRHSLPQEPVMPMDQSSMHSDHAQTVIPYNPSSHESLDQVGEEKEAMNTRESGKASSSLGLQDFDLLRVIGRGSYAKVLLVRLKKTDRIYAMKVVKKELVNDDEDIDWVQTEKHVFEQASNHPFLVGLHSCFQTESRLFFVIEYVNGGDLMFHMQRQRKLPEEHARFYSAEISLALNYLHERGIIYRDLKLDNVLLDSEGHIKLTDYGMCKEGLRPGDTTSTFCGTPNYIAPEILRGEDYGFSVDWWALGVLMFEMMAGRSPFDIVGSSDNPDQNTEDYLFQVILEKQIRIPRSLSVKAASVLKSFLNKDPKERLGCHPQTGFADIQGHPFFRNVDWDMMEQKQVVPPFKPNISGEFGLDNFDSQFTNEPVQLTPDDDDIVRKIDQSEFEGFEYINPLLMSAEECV
Chain of SGK3 (human) (Q96BR1 whole entry, looked up): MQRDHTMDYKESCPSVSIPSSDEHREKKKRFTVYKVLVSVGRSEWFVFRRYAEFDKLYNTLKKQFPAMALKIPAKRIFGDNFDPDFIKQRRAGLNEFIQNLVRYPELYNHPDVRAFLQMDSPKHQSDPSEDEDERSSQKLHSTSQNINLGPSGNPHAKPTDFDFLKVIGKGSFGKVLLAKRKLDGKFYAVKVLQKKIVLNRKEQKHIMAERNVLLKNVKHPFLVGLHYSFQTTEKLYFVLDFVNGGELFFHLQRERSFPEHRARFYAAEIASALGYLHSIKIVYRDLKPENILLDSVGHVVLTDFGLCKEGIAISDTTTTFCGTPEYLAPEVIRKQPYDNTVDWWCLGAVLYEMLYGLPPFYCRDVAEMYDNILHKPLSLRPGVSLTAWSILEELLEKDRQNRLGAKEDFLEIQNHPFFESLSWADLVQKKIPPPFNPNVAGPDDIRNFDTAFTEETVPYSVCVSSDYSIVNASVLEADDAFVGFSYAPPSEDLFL

SMILES | kinase still bound, per cent of control (ICK (human)) | kinase still bound, per cent of control (EGFR (human)) | kinase still bound, per cent of control [1] | kinase still bound, per cent of control (KIT (human)) | kinase still bound, per cent of control (YSK4 (human)) | kinase still bound, per cent of control [2] | kinase still bound, per cent of control (GRK7 (human)) | kinase still bound, per cent of control (PIP4K2C (human)) | kinase still bound, per cent of control [3] | kinase still bound, per cent of control (TIE1 (human)) | kinase still bound, per cent of control (CDKL3 (human)) | kinase still bound, per cent of control (STK39 (human)) | kinase still bound, per cent of control (PIK3C2G (human)) | kinase still bound, per cent of control (DYRK1A (human)) | kinase still bound, per cent of control (BRAF (human)) | kinase still bound, per cent of control (CRK2 (P.falciparum)) | kinase still bound, per cent of control (PRKCI (human)) | kinase still bound, per cent of control (OXSR1 (human)) | kinase still bound, per cent of control [4] | kinase still bound, per cent of control (CDK13 (human)) | other results
Cc1ccc(NC(=O)c2cccc(C(C)(C)C#N)c2)cc1Nc1ccc2ncn(C)c(=O)c2c1 | 100% | 37% | 88% | 0% | 0.85% | 22% | 91% | 100% | 100% | 11% | 100% | 100% | 88% | 79% | 0% | 94% | 100% | 96% | 37% | 100% | kinase still bound, per cent of control (SGK3 (human)): 100%; kinase still bound, per cent of control (CDK4 CCND3 (human)): 90%; kinase still bound, per cent of control (MAP3K13 (human)): 100%; kinase still bound, per cent of control (ERBB3 (human)): 100%; kinase still bound, per cent of control (NEK3 (human)): 57%; kinase still bound, per cent of control (DYRK2 (human)): 100%; kinase still bound, per cent of control (DDR1 (human)): 0%; kinase still bound, per cent of control (PIP5K1C (human)): 75%; kinase still bound, per cent of control (HIPK4 (human)): 92%; kinase still bound, per cent of control (DSTYK (human)): 78%; kinase still bound, per cent of control (RPS6KB1 (human)): 100%; kinase still bound, per cent of control (SBK1 (human)): 79%; kinase still bound, per cent of control (NIM1 (human)): 100%; kinase still bound, per cent of control [5]: 100%; kinase still bound, per cent of control (PIK3CG (human)): 99%; kinase still bound, per cent of control (MAST1 (human)): 100%; kinase still bound, per cent of control (ERN1 (human)): 86%; kinase still bound, per cent of control (CPK1 (P.falciparum)): 0.75%; kinase still bound, per cent of control [6]: 15%; kinase still bound, per cent of control [7]: 100%
Cc1ccc2nc(NCCN)c3ncc(C)n3c2c1 | 100% | 100% | 38% | 37% | 16% | 92% | 100% | 100% | 100% | 100% | 98% | 100% | 23% | 39% | 95% | 100% | 88% | 100% | 100% | 4.7% | kinase still bound, per cent of control (SGK3 (human)): 100%; kinase still bound, per cent of control (CDK4 CCND3 (human)): 75%; kinase still bound, per cent of control (MAP3K13 (human)): 74%; kinase still bound, per cent of control (ERBB3 (human)): 83%; kinase still bound, per cent of control (NEK3 (human)): 100%; kinase still bound, per cent of control (DYRK2 (human)): 8.8%; kinase still bound, per cent of control (DDR1 (human)): 100%; kinase still bound, per cent of control (PIP5K1C (human)): 92%; kinase still bound, per cent of control (HIPK4 (human)): 41%; kinase still bound, per cent of control (DSTYK (human)): 100%; kinase still bound, per cent of control (RPS6KB1 (human)): 96%; kinase still bound, per cent of control (SBK1 (human)): 100%; kinase still bound, per cent of control (NIM1 (human)): 100%; kinase still bound, per cent of control [5]: 52%; kinase still bound, per cent of control (PIK3CG (human)): 100%; kinase still bound, per cent of control (MAST1 (human)): 100%; kinase still bound, per cent of control (ERN1 (human)): 88%; kinase still bound, per cent of control (CPK1 (P.falciparum)): 52%; kinase still bound, per cent of control [6]: 100%; kinase still bound, per cent of control [7]: 26%
